28 molecules from the NIST ThermoML archive (doi:10.1016/j.jct.2018.01.003) can be followed below.

± gives the expanded uncertainty stated by the source.

The nature of the series: activity coefficient (dimensionless); of the first substance listed, at infinite dilution; xn = mol fraction of the nth substance listed. The conditions noted are these: 101.33 kPa, Liquid, Chromatography, x1 = 0.

Take `C1CCOC1` [tetrahydrofuran] + CCCCCCCCCCCCCC[P+](CCCCCC)(CCCCCC)CCCCCC.N#CC(=C=[N-])C#N: the activity coefficient stood at 0.381 ± 0.033 (328.15 K); 0.4 ± 0.034 (338.15 K); 0.417 ± 0.035 (348.15 K); 0.436 ± 0.035 (358.15 K); 0.453 ± 0.036 (368.15 K).

In the case of `Cc1ccccc1` [toluene] + CCCCCCCCCCCCCC[P+](CCCCCC)(CCCCCC)CCCCCC.N#CC(=C=[N-])C#N, the activity coefficient reads like this: (328.15 K) 0.558 ± 0.04; (338.15 K) 0.585 ± 0.041; (348.15 K) 0.611 ± 0.043; (358.15 K) 0.635 ± 0.044; (368.15 K) 0.656 ± 0.045.

For the molecule `CC1CCCCC1` [methylcyclohexane] + CCCCCCCCCCCCCC[P+](CCCCCC)(CCCCCC)CCCCCC.N#CC(=C=[N-])C#N, the activity coefficient by setting is: (328.15 K) 1.32 ± 0.09; (338.15 K) 1.33 ± 0.09; (348.15 K) 1.35 ± 0.09; (358.15 K) 1.36 ± 0.09; (368.15 K) 1.38 ± 0.09.

Regarding `CCOC(C)(C)C` [2-ethoxy-2-methylpropane] + CCCCCCCCCCCCCC[P+](CCCCCC)(CCCCCC)CCCCCC.N#CC(=C=[N-])C#N, the activity coefficient was 1.4 ± 0.09 (328.15 K); 1.45 ± 0.1 (338.15 K); 1.48 ± 0.1 (348.15 K); 1.53 ± 0.1 (358.15 K); 1.56 ± 0.1 (368.15 K).

In the case of `CCCC=O` [butanal] + CCCCCCCCCCCCCC[P+](CCCCCC)(CCCCCC)CCCCCC.N#CC(=C=[N-])C#N, the activity coefficient by setting is: (328.15 K) 0.46 ± 0.036; (338.15 K) 0.477 ± 0.037; (348.15 K) 0.494 ± 0.038; (358.15 K) 0.513 ± 0.038; (368.15 K) 0.533 ± 0.039.

With `CCC(C)(C)OC` [2-methoxy-2-methylbutane] + CCCCCCCCCCCCCC[P+](CCCCCC)(CCCCCC)CCCCCC.N#CC(=C=[N-])C#N, the activity coefficient by setting is: (328.15 K) 1.01 ± 0.06; (338.15 K) 1.06 ± 0.07; (348.15 K) 1.1 ± 0.07; (358.15 K) 1.14 ± 0.07; (368.15 K) 1.18 ± 0.08.

As to `COC(C)=O` [methyl ethanoate] + CCCCCCCCCCCCCC[P+](CCCCCC)(CCCCCC)CCCCCC.N#CC(=C=[N-])C#N, the activity coefficient (328.15 K) stood at 0.65 ± 0.044; the activity coefficient (338.15 K) is 0.669 ± 0.045; the activity coefficient (348.15 K) amounted to 0.685 ± 0.046; the activity coefficient (358.15 K) is 0.704 ± 0.047; the activity coefficient (368.15 K) is 0.721 ± 0.048.

On to `CCCCCC` [hexane] + CCCCCCCCCCCCCC[P+](CCCCCC)(CCCCCC)CCCCCC.N#CC(=C=[N-])C#N, for which the activity coefficient runs as follows: (328.15 K) 1.77 ± 0.12; (338.15 K) 1.81 ± 0.12; (348.15 K) 1.83 ± 0.12; (358.15 K) 1.86 ± 0.13; (368.15 K) 1.88 ± 0.13.

Turning to `C#CCCC` [1-pentyne] + CCCCCCCCCCCCCC[P+](CCCCCC)(CCCCCC)CCCCCC.N#CC(=C=[N-])C#N, the activity coefficient (328.15 K) worked out at 0.76 ± 0.05; the activity coefficient (338.15 K) came to 0.797 ± 0.052; the activity coefficient (348.15 K) stood at 0.832 ± 0.054; the activity coefficient (358.15 K) was 0.863 ± 0.055; the activity coefficient (368.15 K) amounted to 0.893 ± 0.057.

In the case of `c1ccsc1` [thiophene] + CCCCCCCCCCCCCC[P+](CCCCCC)(CCCCCC)CCCCCC.N#CC(=C=[N-])C#N, the activity coefficient (328.15 K) was 0.41 ± 0.034; the activity coefficient (338.15 K) is 0.429 ± 0.035; the activity coefficient (348.15 K) stood at 0.445 ± 0.036; the activity coefficient (358.15 K) stood at 0.461 ± 0.036; the activity coefficient (368.15 K) worked out at 0.478 ± 0.037.

For `C=Cc1ccccc1` [styrene] + CCCCCCCCCCCCCC[P+](CCCCCC)(CCCCCC)CCCCCC.N#CC(=C=[N-])C#N, the activity coefficient came to 0.496 ± 0.038 (328.15 K); 0.52 ± 0.039 (338.15 K); 0.544 ± 0.04 (348.15 K); 0.57 ± 0.041 (358.15 K); 0.593 ± 0.042 (368.15 K).

As to `O` [water] + CCCCCCCCCCCCCC[P+](CCCCCC)(CCCCCC)CCCCCC.N#CC(=C=[N-])C#N, the activity coefficient is, setting by setting: (328.15 K) 1.92 ± 0.13; (338.15 K) 1.77 ± 0.12; (348.15 K) 1.65 ± 0.11; (358.15 K) 1.54 ± 0.1; (368.15 K) 1.44 ± 0.09.

With `C1CCCCC1` [cyclohexane] + CCCCCCCCCCCCCC[P+](CCCCCC)(CCCCCC)CCCCCC.N#CC(=C=[N-])C#N, the activity coefficient by setting is: (328.15 K) 1.14 ± 0.07; (338.15 K) 1.15 ± 0.07; (348.15 K) 1.16 ± 0.07; (358.15 K) 1.17 ± 0.07; (368.15 K) 1.18 ± 0.08.

Turning to `Cc1cccc(C)c1` [1,3-dimethylbenzene] + CCCCCCCCCCCCCC[P+](CCCCCC)(CCCCCC)CCCCCC.N#CC(=C=[N-])C#N, the activity coefficient worked out at 0.713 ± 0.048 (328.15 K); 0.74 ± 0.049 (338.15 K); 0.77 ± 0.05 (348.15 K); 0.8 ± 0.052 (358.15 K); 0.826 ± 0.053 (368.15 K).

As to `CCC(C)(C)C` [2,2-dimethylbutane] + CCCCCCCCCCCCCC[P+](CCCCCC)(CCCCCC)CCCCCC.N#CC(=C=[N-])C#N, the activity coefficient runs as follows: (328.15 K) 1.85 ± 0.12; (338.15 K) 1.87 ± 0.13; (348.15 K) 1.89 ± 0.13; (358.15 K) 1.91 ± 0.13; (368.15 K) 1.93 ± 0.13.

Turning to `CC(C)(C)O` [2-methylpropan-2-ol] + CCCCCCCCCCCCCC[P+](CCCCCC)(CCCCCC)CCCCCC.N#CC(=C=[N-])C#N, the activity coefficient (328.15 K) turned out to be 0.492 ± 0.037; the activity coefficient (338.15 K) came to 0.503 ± 0.038; the activity coefficient (348.15 K) worked out at 0.513 ± 0.038; the activity coefficient (358.15 K) was found to be 0.526 ± 0.039; the activity coefficient (368.15 K) was 0.537 ± 0.039.

For `CC#N` [acetonitrile] + CCCCCCCCCCCCCC[P+](CCCCCC)(CCCCCC)CCCCCC.N#CC(=C=[N-])C#N, the activity coefficient is, setting by setting: (338.15 K) 0.668 ± 0.045; (348.15 K) 0.669 ± 0.045; (358.15 K) 0.671 ± 0.045; (368.15 K) 0.672 ± 0.046.

Take `COC(C)(C)C` [2-methoxy-2-methylpropane] + CCCCCCCCCCCCCC[P+](CCCCCC)(CCCCCC)CCCCCC.N#CC(=C=[N-])C#N: the activity coefficient was 0.946 ± 0.06 (328.15 K); 0.99 ± 0.062 (338.15 K); 1.02 ± 0.06 (348.15 K); 1.06 ± 0.07 (358.15 K); 1.1 ± 0.07 (368.15 K).

`C=CCCCC` [hex-1-ene] + CCCCCCCCCCCCCC[P+](CCCCCC)(CCCCCC)CCCCCC.N#CC(=C=[N-])C#N: the activity coefficient is, setting by setting: (328.15 K) 1.39 ± 0.09; (338.15 K) 1.42 ± 0.09; (348.15 K) 1.43 ± 0.09; (358.15 K) 1.46 ± 0.1; (368.15 K) 1.48 ± 0.1.

Turning to `c1ccccc1` [benzene] + CCCCCCCCCCCCCC[P+](CCCCCC)(CCCCCC)CCCCCC.N#CC(=C=[N-])C#N, the activity coefficient runs as follows: (328.15 K) 0.459 ± 0.036; (338.15 K) 0.481 ± 0.037; (348.15 K) 0.5 ± 0.038; (358.15 K) 0.519 ± 0.039; (368.15 K) 0.536 ± 0.039.

Turning to `CCCOCCC` [dipropyl ether] + CCCCCCCCCCCCCC[P+](CCCCCC)(CCCCCC)CCCCCC.N#CC(=C=[N-])C#N, the activity coefficient runs as follows: (328.15 K) 1.3 ± 0.08; (338.15 K) 1.35 ± 0.09; (348.15 K) 1.39 ± 0.09; (358.15 K) 1.43 ± 0.09; (368.15 K) 1.47 ± 0.1.

For `C=CCCC` [1-pentene] + CCCCCCCCCCCCCC[P+](CCCCCC)(CCCCCC)CCCCCC.N#CC(=C=[N-])C#N, the activity coefficient came to 1.25 ± 0.08 (328.15 K); 1.27 ± 0.08 (338.15 K); 1.3 ± 0.08 (348.15 K); 1.32 ± 0.09 (358.15 K); 1.34 ± 0.09 (368.15 K).

For the molecule `CCc1ccccc1` [ethylbenzene] + CCCCCCCCCCCCCC[P+](CCCCCC)(CCCCCC)CCCCCC.N#CC(=C=[N-])C#N, the activity coefficient was determined as 0.701 ± 0.047 (328.15 K); 0.729 ± 0.048 (338.15 K); 0.756 ± 0.05 (348.15 K); 0.783 ± 0.051 (358.15 K); 0.805 ± 0.052 (368.15 K).

On to `C=CCCCCCC` [oct-1-ene] + CCCCCCCCCCCCCC[P+](CCCCCC)(CCCCCC)CCCCCC.N#CC(=C=[N-])C#N, for which the activity coefficient came out at 1.81 ± 0.12 (328.15 K); 1.85 ± 0.12 (338.15 K); 1.88 ± 0.13 (348.15 K); 1.91 ± 0.13 (358.15 K); 1.94 ± 0.13 (368.15 K).

Consider `C1CCCCCC1` [cycloheptane] + CCCCCCCCCCCCCC[P+](CCCCCC)(CCCCCC)CCCCCC.N#CC(=C=[N-])C#N, for which the activity coefficient runs as follows: (328.15 K) 1.21 ± 0.08; (338.15 K) 1.22 ± 0.08; (348.15 K) 1.23 ± 0.08; (358.15 K) 1.25 ± 0.08; (368.15 K) 1.26 ± 0.08.

`CCC(C)O` (stereo not drawn) [butan-2-ol] + CCCCCCCCCCCCCC[P+](CCCCCC)(CCCCCC)CCCCCC.N#CC(=C=[N-])C#N: the activity coefficient came out at 0.457 ± 0.036 (328.15 K); 0.468 ± 0.037 (338.15 K); 0.476 ± 0.037 (348.15 K); 0.486 ± 0.037 (358.15 K); 0.495 ± 0.038 (368.15 K).

On to `CCCCCCCCCC` [decane] + CCCCCCCCCCCCCC[P+](CCCCCC)(CCCCCC)CCCCCC.N#CC(=C=[N-])C#N, for which the activity coefficient runs as follows: (328.15 K) 3.09 ± 0.21; (338.15 K) 3.1 ± 0.21; (348.15 K) 3.1 ± 0.21; (358.15 K) 3.1 ± 0.21; (368.15 K) 3.1 ± 0.21.

In the case of `C=C(C)c1ccccc1` [(1-methylethenyl)benzene] + CCCCCCCCCCCCCC[P+](CCCCCC)(CCCCCC)CCCCCC.N#CC(=C=[N-])C#N, the activity coefficient amounted to 0.64 ± 0.044 (338.15 K), 0.678 ± 0.046 (348.15 K), 0.716 ± 0.048 (358.15 K) and 0.751 ± 0.049 (368.15 K).
